Laboratory results: patent publication US8900444B2, “Switchable hydrophilicity solvents and methods of use thereof” (Queen's University at Kingston, priority 2009, dated 2014)

Key:
Format in all cases: physicochemical
[1] = Conversion of amine switchable hydrophilicity solvents back to hydrophobic form by heating (Example 5C); conditions: for loss of amine during heating (excessive volatility): 80 °C, approximately 60 minutes
Protocol: All of the amines identified as switchable hydrophilicity solvents in Example 5B (except N,N-dimethylbutylamine) were subjected to the following test. The vial containing the single-phase amine/water/CO2 mixture prepared in example 5B was heated in an oil bath at 80° C. for approximately 60 minutes. The mixture was magnetically stirred, and phase separation was observed throughout the course of heating. In the case of the N1,N1,N4,N4-tetraethylbutane-1,4-diamine/water/CO2 mixture, 5 hours of heating was required to switch it back to its hydrophobic form.

[2] = Miscibility of amines with water in the absence of CO2 (Example 5A); conditions: 1 mL amine + 1 mL H2O, room temperature, visual
Protocol: 1 mL of an appropriate amine was combined with 1 mL of H2O in a 4 mL vial, with the 1 and 2 mL volume lines marked. The vial was manually shaken and left to settle at room temperature. After the mixture settled, the number of phases was observed visually. This procedure was performed for all of the screened amines.

[3] = Miscibility of amines with water in the presence of CO2 (Example 5B); conditions: CO2 bubbled through amine/water mixture for at least one hour
Protocol: All of the amines that formed a biphasic mixture in Example 5A were subjected to the following test. Carbon dioxide was bubbled through the amine/water biphasic mixture, via a syringe needle, for at least one hour. Care was taken to regulate the rate of the CO2 bubbling, so as not to cause evaporation of the amine. The liquid-liquid interface was observed over the course of CO2 bubbling, and a photo was taken after 60 minutes.

[4] = Visual and NMR study of amine switchable hydrophilicity solvents (Example 6)
Protocol: The following amines were evaluated in this series of experiments: N-ethylpiperidine, N,N-dimethylcyclohexylamine, and N,N-dimethylhexylamine. The sequence of experiments is described for one amine but was performed for all three. The visual observations are described in Table 3. 1,4-Dioxane was used as an internal standard for NMR spectroscopy.
Amine (1 mL) was combined with D2O (1 mL) in a 10 mL graduated cylinder, which was then capped with a rubber septum. The cylinder was manually shaken and left to settle at room temperature, after which the mixture appeared as two transparent liquid phases. For each amine, this procedure was simultaneously conducted in 3 identical cylinders. From the aqueous (bottom) layer of one of the three cylinders, three 250 μL samples were withdrawn, combined with equal volumes of D2O and dioxane internal standard, and analyzed by ^1H NMR spectroscopy. The spectra were consistent with the amine in the aqueous phase being in its neutral form. The graduated cylinder from which the samples were taken was discarded.
For each of two remaining graduated cylinders, carbon dioxide was bubbled through the amine/water biphasic mixture, via a syringe needle, for at least one hour. Care was taken to regulate the rate of the CO2 bubbling, so as not to cause significant evaporation of the amine. The mixture changed from a biphasic liquid mixture to a single homogeneous liquid phase. From one of the two graduated cylinders, a 300 μL sample of the homogenous liquid phase was withdrawn and mixed with an equal volume of D2O and a known quantity of dioxane internal standard. […] The graduated cylinder from which the sample was taken was discarded.
The remaining graduated cylinder, containing the single-phase amine/water/CO2 mixture prepared above, was heated in an oil bath at 80 deg. C for 1 hour. Phase separation was observed. Three 250 μL samples of the aqueous (bottom) layer were withdrawn, combined with equal volumes of D2O and a known quantity of dioxane internal standard, and analyzed by NMR spectroscopy.

[5] = CO2 bubbling time to phase merge with and without piperazine; conditions: 5 mL amine + 5 mL water, room temperature, CO2 100 mL/min
Protocol: In some embodiments, addition of a small amount of piperazine further increases the rate of conversion of a switchable hydrophilicity solvent to its ionic form. […] In the presence of an absorption activator, specifically 10 wt % piperazine, the time of CO2 bubbling to phase merge was only 20 minutes. Although not experimentally shown, the inventors expect that piperazine would have a similar absorption activating effect for compounds of formula (1). A similar improvement in CO2 capture for aqueous solutions of tertiary amines was reported by Dubois (Chem. Eng. Tech. 32(5): 710 (2009)).

[6] = Quantitative switching study of BA by 1H NMR (Example 1D)
Protocol: A methanol-d4 solution was prepared containing a sodium acetate internal standard (48.8 mM).
Two 4 mL glass vials containing 1.0 mL D2O and 0.5 mL BA were prepared and shaken. A 50 μL sample was withdrawn from each layer of one vial and combined with 0.50 mL of the sodium acetate standard solution in each of two NMR tubes: the top layer (BA) in a first tube; the bottom layer (aqueous) in a second tube.
Carbon dioxide was bubbled through the unsampled vial until the BA had completely converted to BAB, as evidenced by the disappearance of the top layer. The pH of the solution was measured using pH paper to be approximately 8-9. A 50 μL sample was withdrawn from the BAB/D2O solution and added to 0.50 mL of the sodium acetate standard solution in a third NMR tube.
The 4.0 mL vial from which the last NMR sample was withdrawn was then heated at 80° C. for 1 h and stirred by a magnetic stirrer. Bubbles of CO2 were observed escaping from the solution and a top layer, hydrophobic amidine, appeared. After cooling the vial to room temperature, a 50 μL sample was withdrawn from each layer and combined with 0.50 mL of the sodium acetate standard in two NMR tubes: the top layer (BA) in a fourth tube; the bottom layer (aqueous) in a fifth tube.
The NMR spectra of all five samples are shown in FIG. 10 with the first to fifth tubes shown from top to bottom. […] In addition, using the ‘c’ and ‘d’ protons provided stronger signals, to improve accuracy. Based on the strength of the ‘c’ and ‘d’ signals, 11% of the BA remained in the aqueous phase as BAB after the experiment
Using dioxane as the internal standard gave the same results (11% BAB retention in the aqueous phase) as sodium acetate.
The same experiment was repeated except that the temperature of the heating of the 4.0 mL vial was increased from 80° C. to 90° C. A similar retention of BAB in the aqueous phase (12%) was observed.

[7] = Qualitative switchability assessment of BA (Example 1B); conditions: 80 °C oil bath, stirred
Excerpt: The BA amidine's ability to act as a switchable hydrophilicity solvent for the separation of a selected substance is dependent on its ability to switch from the hydrophobic form to a hydrophilic form. This is achieved by adding water to provide an aqueous layer and decreasing the pH of the aqueous layer, namely by dissolving CO2 in the aqueous layer. When carbon dioxide dissolves in water, it forms carbonic acid with pKa1 of 6.4. The resultant dissociation is sufficient to protonate a hydrophobic amidine, causing it to become charged forming a hydrophilic amidinium bicarbonate (BAB). In this preliminary switching study, the amidine's ability to act as a base and its ability to switch hydrophilicity were studied.
Switching behavior was studied for BA over various periods of time. A glass vial (4 mL) was prepared, containing distilled water (1.0 mL) and BA amidine (0.5 mL).
CO2 was bubbled through the vial for roughly 30 minutes, until the top layer had disappeared showing that a hydrophilic solution of BAB in water had been formed.
A magnetic stirrer was placed in the vial. The vial was suspended in an 80° C. oil bath and stirred. The vial was intermittently removed from the bath and monitored for the presence of a second layer after 20, 50 and 75 minutes. The formation of a second layer (hydrophobic BA) was noted after 20 minutes in the oil bath.

[8] = Polarity study with solvatochromatic dye Nile Red (Example 3); conditions: water-saturated BA or aqueous solution of BAB
Protocol: The maximum wavelength of absorption, λmax, of a switchable hydrophilicity solvent, N,N,N′-tributylpentanamidine (BA), was analyzed in its hydrophobic and hydrophilic forms using the solvatochromatic dye, Nile Red. A 1 Dram vial was prepared containing 1 mL of distilled water to which 1 mL of BA was added. […] This ensured saturation of the BA phase with water. The top phase comprising the BA liquid was pipetted into a quartz cuvette (Semi-Micro Cells, Self Masking Black Walls Spectrosil® Quartz, Starna Cells, Atascadero, Calif., USA) and 1 mg of Nile Red was added, to provide a bright orange-magenta solution. The ultraviolet absorbance spectrum was acquired on an Agilent Technologies ultraviolet/visible spectrometer 50-60 Hz with UV-Visible Chemstation software. The λmax was 510 nm. Distilled water (1.0 mL) was then added to the quartz cuvette and carbon dioxide was slowly bubbled into the mixture for 1 hour to switch the BA to its ionic form, N,N,N′-tributylpentanamidinium bicarbonate (BAB), after which the homogenous mixture turned purple. The ultraviolet absorbance spectrum of the aqueous solution of the dye and ionic salt was then acquired as discussed in the previous paragraph. The λmax was 570 nm.

[9] = Separation of switchable solvent from soybean oil with CO2/carbonated water (Examples 2A, 2C)
Protocol: A 4 mL vial was prepared containing 1.0 mL D2O, 0.5 mL BA and 0.5 mL soybean oil. The vial was shaken thoroughly and allowed to settle, showing a 1.0 mL upper layer (soybean oil and BA) and a 1.0 mL lower layer (D2O). ^1H NMR samples (50 μL) were withdrawn from each layer and mixed with methanol-d4 (0.5 mL) containing a dioxane internal standard (51.5 mM). Another sample was withdrawn from the upper layer for ^1H NMR analysis in CDCl3, because soybean oil is not miscible with methanol. The same volume was discarded from the bottom layer to maintain the initial ratio.
CO2 was bubbled through the system for 1.5 h, at which time the top layer appeared to have halved in volume. Using the same system, ^1H NMR analysis was again conducted on both layers, the bottom layer in methanol-d4 and the top layer in CDCl3.
A 1.0 mL portion of the bottom layer was withdrawn and transferred to a new 4.0 mL vial. A magnetic stirrer was added and the vial was stirred at 80° C. for 1 h. Samples were withdrawn from both layers for ^1H NMR analysis in methanol-d4 with reference to the dioxane internal standard.
The switching behavior of BA in the presence of soybean oil was studied qualitatively and by ^1H NMR spectroscopy as shown in FIG. 11. The top spectrum is that of soy oil. The middle spectrum is that of the upper (organic) phase after the mixing of the BA, soy oil and D2O. This upper phase comprises soy oil and BA. The bottom spectrum is that of the upper (organic) phase after the addition of the CO2 trigger and comprises predominantly soy oil and any residual solvent.
The most informative ^1H NMR spectra in this experiment were those showing the separation of the soy oil and BA. Based on the integration of the peak corresponding to BA at 3.17 ppm in these spectra, 96% of the amidine was removed from the upper soybean oil layer after switching to its hydrophilic BAB form. Other spectra (not shown), collected in methanol-d4 with a dioxane internal standard, confirmed the switching behavior presented in Example 1 above, showing 11% retention of BA in the aqueous phase after heating.
It was possible to remove a high percentage of N1,N1,N4,N4-tetraethylbutane-1,4-diamine from the soybean oil be mixing with carbonated water. The percentage removal was 98.65%. In contrast, 96% of BA was removed from the soybean oil.

[10] = listed as N,N-dimethyl-N-cyclohexylamine

Q: With `CCCCN(CC)CC` [N,N-diethylbutylamine] as the compound, how does the “loss of amine during heating (excessive volatility)” value [1] read?
A: loss of amine

Q: And the “miscibility with water under air (absence of CO2)” value (shortened to “miscibility with water under air”) [2]?
A: biphasic

Q: And the “miscibility with water under air” value ([2]; listed as diethylbutylamine)?
A: immiscible with water

Q: And the “miscibility with water after CO2 treatment” value [3]?
A: single-phase

Q: What about the “miscibility with water after CO2 treatment” value ([3]; listed as diethylbutylamine) of the same compound?
A: became water-miscible

Q: Which results are given for `CN(C)C1CCCCC1` [N,N-dimethylcyclohexylamine]?
A: time of CO2 bubbling to form one homogeneous solution ([4]; 1 mL amine + 1 mL D2O): took 45 min to form one; number of layers formed without CO2 ([4]; 1 mL amine + 1 mL D2O, room temperature): formed 2 clear,; time of heating to separate into 2 layers ([4]; oil bath 80 deg. C): after 30 min, solution has; volume of bottom (aqueous) layer after heating ([4]; oil bath 80 deg. C): clear & colorless, with volume of 1 mL,; volume of top layer after heating ([4]; oil bath 80 deg. C): oily, with volume of 0.8 mL; time of CO2 bubbling to phase merge ([5]; 10 wt % piperazine): 20 min; time of CO2 bubbling for phase merge ([5]; absence of piperazine): 35 min; miscibility with water under air (absence of CO2) [2]: biphasic; miscibility with water under air (absence of CO2) [2, 10]: immiscible with water; miscibility with water after CO2 treatment [3]: single-phase; miscibility with water after CO2 treatment [3, 10]: became water-miscible

Q: Which results are given for `CCCCN=C(CCCC)N(CCCC)CCCC.O=C(O)O` [BAB, N,N,N′-tributylpentanamidinium bicarbonate]?
A: BAB retention in the aqueous phase after heating ([6]; 80 °C, 1 h, dioxane internal standard): 11%; retention of BAB in the aqueous phase after heating ([6]; 90 °C): 12%; pH of solution after complete conversion with CO2 ([6]; BAB/D2O solution, pH paper): 8-9; BAB ionic form converted back to BA ([6]; after heating for 1 hour): > 90%; heating time to formation of second (hydrophobic) layer [7]: 20 min; maximum wavelength of absorption (λmax) of Nile Red [8]: 570 nm

Q: For `CCN(CC)CC` [triethylamine], which “loss of amine during heating (excessive volatility)” value [1] is on record?
A: loss of amine

Q: What about the “miscibility with water under air” value [2] of the same compound?
A: biphasic

Q: And the “miscibility with water under air” value ([2]; listed as N,N,N-triethylamine)?
A: immiscible with water

Q: What about the “miscibility with water after CO2 treatment” value [3] of the same compound?
A: single-phase

Q: What about the “miscibility with water after CO2 treatment” value ([3]; listed as N,N,N-triethylamine) of the same compound?
A: became water-miscible

Q: For `CCN(CC)CCCCN(CC)CC` [N1,N1,N4,N4-tetraethylbutane-1,4-diamine], which “heating time required to switch back to hydrophobic form” value ([1]; amine/water/CO2 mixture, oil bath 80 °C, stirred) is on record?
A: 5 h

Q: What about the “miscibility with water under air” value [2] of the same compound?
A: biphasic

Q: What about the “miscibility with water under air” value ([2]; listed as Et2NCH2CH2CH2CH2NEt2) of the same compound?
A: immiscible

Q: And the “solvent removed from soybean oil after switching to hydrophilic form” value ([9]; CO2 / carbonated water)?
A: 98.65%

Q: And the “miscibility with soybean oil” value ([9]; neutral hydrophobic form)?
A: miscible with soybean oil

Q: And the “miscibility with water after CO2 treatment” value [3]?
A: single-phase

Q: And the “miscibility with water after CO2 treatment” value ([3]; listed as Et2NCH2CH2CH2CH2NEt2)?
A: miscible
